Assay [1] deals with human TYK2 (JH2domain-pseudokinase) (Homo sapiens (Human), UniProt P29597). The assay is described as follows: TYK2 JH2 Domain Binding Assay (KINOMEscan). In short, it runs like this: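 Displacement of a DNA-tagged TYK2 JH2 fusion (human, aa G556–D888, HEK293 extract, <0.1 nM) from ligand-coated beads over 1 h at RT; binding buffer PBS/0.05% Tween 20/10 mM DTT/0.1% BSA.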
The target of assay [2] is Tyk2 kinase domain (DH1) (Homo sapiens (Human), UniProt P29597). The assay is described as follows: Tyk2 Radioactive Kinase Assay. It counts as biochemical. The following applies: compound at 10 μM, ATP 10 μM; for inhibition at 10 µM: read-out: Tyk2 JH1% Inhibition @ 10 μM. Put shortly: (§1)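 Compounds were tested at a single concentration of 10 μM in a radiometric kinase format against each isolated kinase domain. Activity is reported as percent inhibition at that concentration.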

The target in assay [3] is JAK2 kinase domain (JH1) (Homo sapiens (Human), UniProt O60674). The experiment in a line: JAK2 Radioactive Kinase Assay. The assay is classed as biochemical. Conditions: compound at 10 μM, ATP 10 μM; for inhibition at 10 µM: read-out: JAK2 JH1% Inhibition @ 10 μM. In short, it runs like this:
as §1

Molecules are shown by their SMILES. pKd: −log10 of the molar value. Bounds are passed on as bounds.

Chain of Tyk2 kinase domain (DH1) (P29597 897-1176): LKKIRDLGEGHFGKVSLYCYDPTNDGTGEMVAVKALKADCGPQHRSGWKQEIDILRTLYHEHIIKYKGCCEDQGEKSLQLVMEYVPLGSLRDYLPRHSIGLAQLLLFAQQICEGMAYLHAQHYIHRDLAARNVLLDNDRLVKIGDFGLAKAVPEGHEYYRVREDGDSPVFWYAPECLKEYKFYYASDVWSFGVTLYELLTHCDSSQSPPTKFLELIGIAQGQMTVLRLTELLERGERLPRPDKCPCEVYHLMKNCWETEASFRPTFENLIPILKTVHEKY
Chain of JAK2 kinase domain (JH1) (O60674 849-1124): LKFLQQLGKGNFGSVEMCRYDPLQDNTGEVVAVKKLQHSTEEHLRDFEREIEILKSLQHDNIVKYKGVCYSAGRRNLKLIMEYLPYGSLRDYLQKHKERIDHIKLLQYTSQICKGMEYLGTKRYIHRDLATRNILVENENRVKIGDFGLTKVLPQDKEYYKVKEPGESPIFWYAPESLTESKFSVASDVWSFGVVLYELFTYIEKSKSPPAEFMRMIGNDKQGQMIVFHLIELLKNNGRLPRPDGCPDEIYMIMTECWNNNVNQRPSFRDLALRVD
Chain of human TYK2 (JH2domain-pseudokinase) (P29597 556-888): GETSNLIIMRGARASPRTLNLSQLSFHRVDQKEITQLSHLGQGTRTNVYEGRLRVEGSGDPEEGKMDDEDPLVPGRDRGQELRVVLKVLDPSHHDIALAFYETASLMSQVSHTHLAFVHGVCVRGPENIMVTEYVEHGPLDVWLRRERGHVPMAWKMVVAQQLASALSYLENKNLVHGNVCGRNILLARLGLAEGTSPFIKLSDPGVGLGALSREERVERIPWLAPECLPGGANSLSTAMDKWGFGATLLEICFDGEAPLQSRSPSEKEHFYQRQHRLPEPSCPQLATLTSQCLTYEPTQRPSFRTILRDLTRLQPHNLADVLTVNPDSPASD

In the case of `CNc1cc(Nc2cccn(C3CCOCC3)c2=O)nc2c(C(=O)N[C@H]3CC[C@H]3O)cnn12` [I-527], in assay [1], the pKd is 9.00 to 9.70. Moreover, the inhibition at 10 µM in assay [2] and in assay [3] was below 50% in each case.
In assay [1], `CNc1cc(Nc2cccn(C3CCOCC3)c2=O)nc2c(C(=O)N[C@H]3CC[C@@H]3O)cnn12` [I-528] gave a pKd above 9.70. In addition, the inhibition at 10 µM in assay [2] and in assay [3] was below 50% each time.
Turning to `CNc1cc(Nc2cccc(C3CCCCO3)n2)nc2c(C(=O)NCC3(CO)CC3)cnn12` (stereo not drawn) [I-530], in assay [1], the pKd was 9.00 to 9.70. Moreover, the inhibition at 10 µM in assay [2] and in assay [3] was below 50% throughout.
In assay [1], `CNc1cc(Nc2ccc3c(n2)OCCO3)nc2c(C(=O)NC3CC3)cnn12` [I-531] showed a negative logarithm of the Kd (pKd) of 9.00 to 9.70. In addition, the inhibition at 10 µM in assay [2] and in assay [3] was below 50% in each case.
Regarding `CNc1cc(Nc2ccc3c(n2)OCCO3)nc2c(C(=O)N[C@H]3C[C@H]3F)cnn12` [I-532], the pKd in assay [1] is 9.00 to 9.70. Further, the inhibition at 10 µM in assay [2] and in assay [3] was below 50% each time.
`CNc1cc(Nc2cc(F)cn([C@@H]3CCCOC3)c2=O)nc2c(C(=O)NC3CC3)cnn12` [I-533] showed a pKd in assay [1] above 9.70. Moreover, the inhibition at 10 µM in assay [2] and in assay [3] was below 50% in each case.
The compound `CNc1cc(Nc2cc(F)cn([C@H]3CCCOC3)c2=O)nc2c(C(=O)NC3CC3)cnn12` [I-534] showed a pKd in assay [1] of 9.00 to 9.70. Also, the inhibition at 10 µM in assay [2] and in assay [3] was below 50% throughout.
`CNc1cc(Nc2cccn([C@H]3CCCN(C)C3)c2=O)nc2c(C(=O)N[C@@H]3C[C@@H]3F)cnn12` [I-535] gave a pKd in assay [1] above 9.70. Besides, the inhibition at 10 µM in assay [2] and in assay [3] was below 50% each time.
Compound `CNc1cc(Nc2cccn([C@@H]3CCCN(C)C3)c2=O)nc2c(C(=O)N[C@@H]3C[C@@H]3F)cnn12` [I-536] gave a negative logarithm of the Kd (pKd) in assay [1] of 9.00 to 9.70. Further, the inhibition at 10 µM in assay [2] and in assay [3] was below 50% in each case.
Take `CNc1cc(Nc2cccn([C@@H]3CCC[C@@H]3OC)c2=O)nc2c(C(=O)N[C@@H]3C[C@@H]3F)cnn12` [I-537]: the pKd in assay [1] is 8.00 to 9.00. Besides, in assay [2], the “Tyk2 JH1% Inhibition @ 10 μM” value is recorded as “A (percent inhibition at 10 μM lower than 50)”. Besides, the “JAK2 JH1% Inhibition @ 10 μM” value in assay [3] is given as “A (percent inhibition at 10 μM lower than 50)”.
Take `CNc1cc(Nc2cccn([C@H]3CCC[C@H]3OC)c2=O)nc2c(C(=O)N[C@@H]3C[C@@H]3F)cnn12` [I-538]: the negative logarithm of the Kd (pKd) in assay [1] is 8.00 to 9.00. In addition, the inhibition at 10 µM in assay [2] and in assay [3] was below 50% each time.
In the case of `CNc1cc(Nc2cccn(C3CCN(C)CC3)c2=O)nc2c(C(=O)NCC(C)(C)CO)cnn12` [I-542], in assay [1], the pKd is 9.00 to 9.70. The inhibition at 10 µM in assay [2] and in assay [3] was below 50% in each case.
As for `CNc1cc(Nc2cccn(C3CCN(C)CC3)c2=O)nc2c(C(=O)NCC3(CO)CC3)cnn12` [I-543], in assay [1], the pKd was 9.00 to 9.70. Further, the inhibition at 10 µM in assay [2] and in assay [3] was below 50% in each case.
Compound `CNc1cc(Nc2cccnc2OC2CC2)nc2c(C(=O)N[C@@H]3COC[C@@H]3O)cnn12` [I-546] showed a pKd in assay [1] of 8.00 to 9.00. Also, the inhibition at 10 µM in assay [2] and in assay [3] was below 50% in each case.
`CNc1cc(Nc2cccc([C@@H]3CCCOC3)n2)nc2c(C(=O)NC3CC3)cnn12` [I-548]: the negative logarithm of the Kd (pKd) in assay [1] was above 9.70. Besides, the inhibition at 10 µM was below 50% in assay [2] and 50 to 70% in assay [3].
Regarding `CNc1cc(Nc2cccc([C@H]3CCCOC3)n2)nc2c(C(=O)NC3CC3)cnn12` [I-549], the pKd in assay [1] was above 9.70. Also, the inhibition at 10 µM in assay [2] and in assay [3] was below 50% each time.
Consider `CNc1cc(Nc2cccn(C3CC4(COC4)C3)c2=O)nc2c(C(=O)NC3CC3)cnn12` [I-550], for which the pKd in assay [1] was above 9.70. The inhibition at 10 µM in assay [2] and in assay [3] was below 50% each time.
In assay [1], `CNc1cc(-n2cc(N3CCCC3)c3ncccc32)nc2c(C(=O)NC3CC3)cnn12` [I-552] gave a pKd of 8.00 to 9.00. Besides, the inhibition at 10 µM in assay [2] and in assay [3] was below 50% in each case.
Compound `CNc1cc(-n2cc(N3CCCC3)c3ncccc32)nc2c(C(=O)N[C@@H]3C[C@@H]3F)cnn12` [I-553] had a pKd in assay [1] of 9.00 to 9.70. In addition, the inhibition at 10 µM in assay [2] and in assay [3] was below 50% in each case.
`CNc1cc(-n2cc(N3CCOCC3)c3ncccc32)nc2c(C(=O)NC3CC3)cnn12` [I-554] gave a negative-log Kd (pKd) in assay [1] of 8.00 to 9.00. The inhibition at 10 µM in assay [2] and in assay [3] was below 50% each time.
In assay [1], `CNc1cc(-n2cc(N3CCOCC3)c3ncccc32)nc2c(C(=O)N[C@H]3C[C@H]3F)cnn12` [I-555] had a negative-log Kd (pKd) of 8.00 to 9.00. Moreover, the inhibition at 10 µM in assay [2] and in assay [3] was below 50% each time.
With `CNc1cc(Nc2cccn(C3CCOCC3)c2=O)nc2c(C(=O)N[C@@H]3CC[C@@H]3O)cnn12` [I-556], the pKd in assay [1] is above 9.70. In addition, the inhibition at 10 µM in assay [2] and in assay [3] was below 50% each time.
Regarding `CNc1cc(Nc2cccn(C3CCOCC3)c2=O)nc2c(C(=O)N[C@H]3CC[C@H]3O)cnn12` [I-557], the pKd in assay [1] is 9.00 to 9.70. Also, the “Tyk2 JH1% Inhibition @ 10 μM” value in assay [2] is given as “A (percent inhibition at 10 μM lower than 50)”. Further, the “JAK2 JH1% Inhibition @ 10 μM” value in assay [3] is “A (percent inhibition at 10 μM lower than 50)”.
Turning to `CNc1cc(Nc2cc(F)cn([C@@H]3CCCOC3)c2=O)nc2c(C(=O)N[C@H]3C[C@H]3F)cnn12` [I-558], the pKd in assay [1] is above 9.70. The inhibition at 10 µM in assay [2] and in assay [3] was below 50% each time.
In assay [1], `CNc1cc(Nc2cccn([C@H]3CC[C@H](OC)CC3)c2=O)nc2c(C(=O)N[C@H]3CC[C@H]3O)cnn12` [I-561] showed a pKd of 9.00 to 9.70. Moreover, the “Tyk2 JH1% Inhibition @ 10 μM” value in assay [2] was “A (percent inhibition at 10 μM lower than 50)”. Besides, in assay [3], the “JAK2 JH1% Inhibition @ 10 μM” value is reported as “A (percent inhibition at 10 μM lower than 50)”.
As for `CNc1cc(Nc2cccc([C@H]3CCCCO3)n2)nc2c(C(=O)NCC3(CO)CC3)cnn12` [I-564], the negative-log Kd (pKd) in assay [1] is above 9.70. Moreover, the inhibition at 10 µM in assay [2] and in assay [3] was below 50% in each case.
`CNc1cc(Nc2cccc([C@@H]3CCCCO3)n2)nc2c(C(=O)NCC3(CO)CC3)cnn12` [I-565]: the pKd in assay [1] is above 9.70. Also, the inhibition at 10 µM in assay [2] and in assay [3] was below 50% throughout.
On to `CNc1cc(Nc2cccn([C@@H]3CCOC[C@@H]3OC)c2=O)nc2c(C(=O)NC3CC3)cnn12` [I-567], for which, in assay [1], the pKd is 8.00 to 9.00. For the same compound, the inhibition at 10 µM in assay [2] and in assay [3] was below 50% in each case.
Turning to `CNc1cc(Nc2cccn([C@@H]3CCC[C@H](OC)C3)c2=O)nc2c(C(=O)NC3CC3)cnn12` [I-568], in assay [1], the negative logarithm of the Kd (pKd) is above 9.70. Further, the inhibition at 10 µM in assay [2] and in assay [3] was below 50% each time.
For `CNc1cc(Nc2cccn(C3CCN(CCF)CC3)c2=O)nc2c(C(=O)NC3CC3)cnn12` [I-569, N-cyclopropyl-5-((1-(1-(2-fluoroethyl)piperidin-4-yl)-2-oxo-1,2-dihydropyridin-3-yl)amino)-7-(methylamino)pyrazolo[1,5-a]pyrimidine-3-carboxamide], the pKd in assay [1] is above 9.70. Also, the inhibition at 10 µM in assay [2] and in assay [3] was below 50% each time.
In assay [1], `CNc1cc(Nc2cccn(C3CCCOC3)c2=O)nc2c(C(=O)NCC(C)(C)CO)cnn12` (stereo not drawn) [I-571] showed a pKd above 9.70. For the same compound, the inhibition at 10 µM in assay [2] and in assay [3] was below 50% in each case.
`CNc1cc(-n2cc(N3CCN(C)CC3)c3ncccc32)nc2c(C(=O)NC3CC3)cnn12` [I-574] had a pKd in assay [1] of 8.00 to 9.00. Further, the inhibition at 10 µM in assay [2] and in assay [3] was below 50% throughout.
In assay [1], `CNc1cc(-n2cc(N3CCN(C)CC3)c3ncccc32)nc2c(C(=O)N[C@H]3C[C@H]3F)cnn12` [I-575] showed a pKd of 8.00 to 9.00. The inhibition at 10 µM in assay [2] and in assay [3] was below 50% each time.
In assay [1], `CNc1cc(Nc2cccn(CCOC3CC3)c2=O)nc2c(C(=O)NC3CC4(COC4)C3)cnn12` [I-576, 5-((1-(2-cyclopropoxyethyl)-2-oxo-1,2-dihydropyridin-3-yl)amino)-7-(methylamino)-N-(2-oxaspiro[3.3]heptan-6-yl)pyrazolo[1,5-a]pyrimidine-3-carboxamide] showed a pKd of 8.00 to 9.00. The inhibition at 10 µM in assay [2] and in assay [3] was below 50% each time.
Turning to `CNc1cc(Nc2cccn(CCOC3CC3)c2=O)nc2c(C(=O)NCC3(CO)CC3)cnn12` [I-577, 5-((1-(2-cyclopropoxyethyl)-2-oxo-1,2-dihydropyridin-3-yl)amino)-N-((1-(hydroxymethyl)cyclopropyl)methyl)-7-(methylamino)pyrazolo[1,5-a]pyrimidine-3-carboxamide], in assay [1], the negative logarithm of the Kd (pKd) is 9.00 to 9.70. Also, the inhibition at 10 µM in assay [2] and in assay [3] was below 50% throughout.
The compound `CNc1cc(Nc2cccc([C@H]3CCCOC3)n2)nc2c(C(=O)NCC(C)(C)CO)cnn12` [I-579] gave a negative logarithm of the Kd (pKd) in assay [1] above 9.70. Further, the inhibition at 10 µM in assay [2] and in assay [3] was below 50% in each case.
`CNc1cc(Nc2cccc([C@@H]3CCCOC3)n2)nc2c(C(=O)NCC(C)(C)CO)cnn12` [I-580] had a negative logarithm of the Kd (pKd) in assay [1] above 9.70. Also, the inhibition at 10 µM in assay [2] and in assay [3] was below 50% in each case.
In the case of `CNc1cc(Nc2c(F)ccn(-c3nccs3)c2=O)nc2c(C(=O)NC3CC3)cnn12` [I-581], in assay [1], the negative logarithm of the Kd (pKd) is 8.00 to 9.00. Further, the inhibition at 10 µM in assay [2] and in assay [3] was below 50% in each case.

Values taken from US10508120B2, “TYK2 inhibitors and uses thereof” (Nimbus Lakshmi, Inc., priority 2017, dated 2019).
